Laboratory results as given in paper PMC7072103, “Simultaneous Determination of 13 Constituents of Radix Polygoni Multiflori in Rat Plasma and Its Application in a Pharmacokinetic Study” (International Journal of Analytical Chemistry, 2020).
Entries after “also recorded” stand apart in the source; their conditions may differ. Like-named read-outs stand apart in the source and are kept apart here.

How the values were obtained:
[1] = Stability of the analytes in rat plasma and processed plasma samples; assay type: in vitro ADME; details: for Stability, post-preparative: acetonitrile-precipitated plasma supernatant, 24 h at 6°C in autosampler; for Stability, long-term (–70 °C) / Stability, short-term / Stability, freeze–thaw (three cycles): rat plasma; for Stability, long-term (–70 °C): 3 months at −70°C; for Stability, short-term: 4 h at room temperature; for Stability, freeze–thaw (three cycles): −70°C to room temperature
Description: The stability of the 13 analytes in rat plasma were assessed by analyzing samples spiked 0.2, 2.7, and 58.3 ng/mL for emodin, aloe-emodin, questin, citreorosein, questinol, TG, CG, EG, PG; 0.6, 8.1, and 175 ng/mL for TSG; 1, 13.5, and 291.6 ng/mL for rhein, physcion; and 2, 27, and 583.2 ng/mL for chrysophanol, respectively, under four conditions: (1) short-term storage for 4 h at room temperature; (2) long-term storage for (3 months at −70°C; (3) three freeze-thaw cycles; and (4) posttreatment storage for 24 h at 6°C setting in UPLC autosampler. The concentrations obtained were compared with the nominal values of the spiked samples. The stability was calculated as the percent of the measured concentration to the initial concentration at time zero. The analytes were considered stable if the assay values were within the acceptable limit of accuracy (85.0∼115%).

[2] = Pharmacokinetic study in rats after oral administration of RPM extract (UPLC-MS/MS of plasma); assay type: in vivo, Sprague-Dawley rats; details: for Latest plasma sample time at which the constituent was detected / Detection in rat plasma after oral RPM extract: RPM extract 36 g/kg oral; for Latest plasma sample time at which the constituent was detected: sampling up to 24 h; for Detection in rat plasma after oral RPM extract: real plasma samples
Description: The analysis was performed on an AB Sciex API 5500 Q Trap mass spectrometer (Toronto, Canada), interfaced with a Waters Acquity UPLC separation module. Empower 3.0 and Analyst 1.62 software were used to control UPLC and mass spectrometer, respectively.
Chromatographic separation was achieved on a waters HSS C18 column (100 × 2.1 mm, 1.8 μm, kept at 40°C) using a mobile phase containing 0.025% formic acid that consisted of solvent A (water) and solvent B (acetonitrile). The mobile phase was delivered at 0.3 mL/min, and a gradient program was used as follows: 0-1 min, held 5% to 25% solvent B; 1–3.5 min, linear gradient from 25% to 35% solvent B; 3.5–5 min, linear gradient from 35% to 40% solvent B; 5-6 min, linear gradient from 40% to 60% solvent B; 6-6.1 min, linear gradient from 60% to 95% solvent B; 6.1–8 min, linear gradient from 95% to 100% solvent B; and 8-9 min, held 5% solvent B.
The MS detection was set in positive multiple reaction monitoring (MRM) mode for the analytes and IS. The turbo spray temperature was maintained at 500°C. The nebulizer gas (gas 1), heater gas (gas 2), and curtain gas was set at 45, 50, and 45 psi, respectively. The interface heater was on. The precursor ion, corresponding product ion and dwell time along with declustering potential (DP), entrance potential (EP), collision energy (CE), and collision exit potential (CXP) for each compound were optimized with standard substance. The dwell time was 50 ms for all analytes. The EP and CXP were set at –10 V and −16 V, respectively.
Sample preparations were made using the protein precipitation process. 50 μL thawed plasma, 10 μL IS working solution (puerarin 10 μg/mL), and 150 μL acetonitrile were added to a 1.5 mL tube in that order. After vortexed for 5 min and centrifuged at 12,000 g for 5 min at 4°C, 150 μL of the supernatant was transferred and a 5 μL was injected into the UPLC-MS/MS instrument for analysis.
Male Sprague-Dawley rats (200–240 g) were obtained from Beijing Vital River Laboratory Animal Technology Co., Ltd. (Beijing, China) (SCXK 2016(jing)-0006). The animals were maintained in SPF animal room at temperature 22 ± 2°C, 60 ± 5% humidity, and 12/12 h day/night cycle. All procedures were approved by the Institutional Animal Ethics Committee and performed in accordance with the Regulations of Experiment Animal Administration issued by the State Committee of Science and Technology of China. RPM extract suspended in an equal volume of 5% CMC-Na solution and orally administered to the six rats at a single dose of 36 g/kg (dose calculated as grams of crude materials used to create the extract per kilogram of rat body weight). The dose was set at a subtoxic level to investigate the pharmacokinetic profiles of the constituents of RPM and were approximately 72 times the upper dose (6 g/day) of human recommended by the 2015 edition of Chinese Pharmacopoeia (converted to rat dose based on body surface area conversion). The calculated doses of compounds based on the contents in the extract were 7.38, 14.8, 13.7, 8.82, 15.5, 11.2, 55.8, 1.08, 1170, 11.3, 25.7, 131.4, and 13.0 mg/kg for chrysophanol, emodin, aloe-emodin, rhein, physcion, questin, citreorosein, questinol, TSG, TG, CG, EG, and PG, respectively. Rats were fasted for at least 12 h before the experiments and had free access to water. Blood samples (∼0.25 mL) were collected from the retinal venous plexus into heparinized 1.5 mL polythene tubes before administration and 5, 15, and 30 min and 1, 2, 4, 6, 8, 12, and 24 h after dosing RPM extract at dose of 36 g/kg. The plasma was immediately separated from blood samples and stored frozen at −70°C until analysis.
The pharmacokinetic parameters were calculated using the pharmacokinetic software Phoenix® WinNonlin®, version 7.0 (Scientific Consulting Inc., Apex, NC, USA). The peak plasma concentration (Cmax) and time to reach Cmax (Tmax) were read directly from the experimental data. […]

[3] = high QC (58.3 ng/mL; TSG 175; rhein, physcion 292; chrysophanol 583)
[4] = low QC (0.2 ng/mL; TSG 0.6; rhein, physcion 1; chrysophanol 2)
[5] = middle QC (2.7 ng/mL; TSG 8.1; rhein, physcion 13.5; chrysophanol 27)
[6] = male, Sprague-Dawley, in vivo, rat plasma, single oral dose of RPM extract 36 g/kg, n = 6, mean ± SD, read-out: AUC0–∞
[7] = male, Sprague-Dawley, in vivo, rat plasma, single oral dose of RPM extract 36 g/kg, n = 6, mean ± SD, read-out: Cmax
[8] = male, Sprague-Dawley, in vivo, rat plasma, single oral dose of RPM extract 36 g/kg, n = 6, mean ± SD, read-out: MRT0–∞
[9] = male, Sprague-Dawley, in vivo, rat plasma, single oral dose of RPM extract 36 g/kg, n = 6, mean ± SD, read-out: Tmax
[10] = male, Sprague-Dawley, in vivo, rat plasma, single oral dose of RPM extract 36 g/kg, n = 6, mean ± SD, read-out: t1/2 (converted)
[11] = male, Sprague-Dawley, rat, in vivo, po, 36 g/kg, rat plasma, single oral dose of RPM extract 36 g/kg, n = 6, mean ± SD, read-out: AUC0–t
[12] = male, Sprague-Dawley, rat, plasma, po, 36 g/kg, rat plasma, single oral dose of RPM extract 36 g/kg, n = 6, mean ± SD, read-out: AUC0–t
[13] = male, Sprague-Dawley, rat plasma, single oral dose of RPM extract 36 g/kg, n = 6, mean ± SD, read-out: AUC0–∞
[14] = male, Sprague-Dawley, rat plasma, single oral dose of RPM extract 36 g/kg, n = 6, mean ± SD, read-out: Cmax
[15] = male, Sprague-Dawley, rat plasma, single oral dose of RPM extract 36 g/kg, n = 6, mean ± SD, read-out: MRT0–∞
[16] = male, Sprague-Dawley, rat plasma, single oral dose of RPM extract 36 g/kg, n = 6, mean ± SD, read-out: Tmax
[17] = male, Sprague-Dawley, rat plasma, single oral dose of RPM extract 36 g/kg, n = 6, mean ± SD, read-out: t1/2 (converted)
[18] = male, Sprague-Dawley, rat, in vivo, po, 36 g/kg
[19] = rat plasma, single oral dose of RPM extract 36 g/kg, n = 6, mean ± SD

In the case of `O=C1c2cccc(O)c2C(=O)c2c(O)cc(CO)cc21` [Aloe-emodin, aloe-emodin], the “Stability, post-preparative” value [1, 3] is reported as 92.6%, the “Stability, post-preparative” value [1, 4] is reported as 96.4% and the “Stability, post-preparative” value [1, 5] is reported as 102%. For the same compound, the “Stability, long-term (–70 °C)” value [1, 3] was 102%, the “Stability, long-term (–70 °C)” value [1, 4] was 103% and the “Stability, long-term (–70 °C)” value [1, 5] was 98.4%. For the same compound, the “Stability, short-term” value [1, 3] was 104%, the “Stability, short-term” value [1, 4] was 105% and the “Stability, short-term” value [1, 5] was 105%. The “Stability, freeze–thaw (three cycles)” value [1, 3] was 101%, the “Stability, freeze–thaw (three cycles)” value [1, 4] was 99% and the “Stability, freeze–thaw (three cycles)” value [1, 5] was 97.2%. For the same compound, the “Latest plasma sample time at which the constituent was detected” value (“Latest plasma sample time” below) [2] was ≤ 12 h, the AUC(0-inf) [2, 6] was 8.46 ± 3.44 ng·h/mL and the Cmax [2, 7] was 11.3 ± 3.1 ng/mL. The MRT inf [2, 8] was 3.17 ± 1.54 h, the Tmax [2, 9] was 0.22 ± 0.07 h and the half-life [2, 10] was 3.44 ± 1.4 h. It also gave an AUC(0-t) [2, 11] of 7.28 ± 3.25 ng·h/mL.
In the case of `Cc1cc(O)c2c(c1)C(=O)c1cccc(O)c1C2=O` [Chrysophanol, chrysophanol], the “Latest plasma sample time” value [2] is reported as ≤ 6 h, the AUC(0-t) [2, 12] is reported as 4.28 ± 1.64 ng·h/mL and the AUC(0-inf) [2, 13] is reported as 10.3 ± 1.87 ng·h/mL. For the same compound, the Cmax [2, 14] was 1.9 ± 0.56 ng/mL, the MRT inf [2, 15] was 6.76 ± 2.06 h and the Tmax [2, 16] was 2.22 ± 1.76 h. For the same compound, the half-life [2, 17] was 3.18 ± 0.62 h.
With `O=C1c2cc(O)cc(O)c2C(=O)c2c(O)cc(CO)cc21` [Citreorosein, 1,3,8-trihydroxy-6-(hydroxymethyl)anthracene-9,10-dione] the “Relative bioavailability versus emodin (AUC0–t normalized by molecular weight and dose)” value ([2]; male, Sprague-Dawley, rat, in vivo, po) was 15.8%, the “AUC0–t” value [2, 18] was 131 ± 96.9 ng·h/mL and the “AUC0–t relative to that of emodin” value [2, 18] was 6.0 fold. The AUC(0-inf) [2, 18] was 134 ± 96.4 ng·h/mL, the Cmax [2, 18] was 149 ± 147 ng/mL and the MRT inf [2, 18] was 5.32 ± 1.85 h. It also gave a Tmax [2, 18] of 0.19 ± 0.09 h, a half-life [2, 18] of 3.97 ± 1.31 h and an AUC(0-t) ([2]; male, Sprague-Dawley, rat, in vivo, po, 36 g/kg, AUC0–t) of 134 ± 96.4 ng·h/mL.
For `Cc1cc(O)c2c(c1)C(=O)c1cc(O)cc(O)c1C2=O` [Emodin, 1,3,8-trihydroxy-6-methylanthracene-9,10-dione], the “Stability, post-preparative” value [1, 3] was 98.1%, the “Stability, post-preparative” value [1, 4] was 101% and the “Stability, post-preparative” value [1, 5] was 103%. The “Stability, long-term (–70 °C)” value [1, 3] was 101%, the “Stability, long-term (–70 °C)” value [1, 4] was 100% and the “Stability, long-term (–70 °C)” value [1, 5] was 102%. The “Stability, short-term” value [1, 3] was 106%, the “Stability, short-term” value [1, 4] was 93.6% and the “Stability, short-term” value [1, 5] was 105%. For the same compound, the “Stability, freeze–thaw (three cycles)” value [1, 3] was 104%, the “Stability, freeze–thaw (three cycles)” value [1, 4] was 102% and the “Stability, freeze–thaw (three cycles)” value [1, 5] was 104%. For the same compound, the AUC(0-inf) [2, 6] was 801 ± 233 ng·h/mL, the Cmax [2, 7] was 175 ± 33.8 ng/mL and the MRT inf [2, 8] was 11.8 ± 5.27 h. The Tmax [2, 9] was 0.19 ± 0.09 h, the half-life [2, 10] was 8.37 ± 4.17 h and the AUC(0-t) [2, 11] was 801 ± 187 ng·h/mL. The “AUC0–t” value [2, 19] was 686 ± 187 ng·h/mL.
In the case of `COc1cc(O)c2c(c1)C(=O)c1cc(C)cc(O)c1C2=O` [Physcion, physcion], the “Detection in rat plasma after oral RPM extract” value (“Detection in rat plasma” for short) [2] is reported as “not detected” and the “Detection in rat plasma” value ([2]; listed as physcion) is reported as “too low to be detected”.
For `COc1cc(O)cc2c1C(=O)c1c(O)cc(C)cc1C2=O` [Questin, questin], the “Detection in rat plasma” value [2] was “not detected; also recorded: too low to be detected”.
With `O=C(O)c1cc(O)c2c(c1)C(=O)c1cccc(O)c1C2=O` [Rhein, rhein] the “Latest plasma sample time” value [2] was ≤ 2 h, the AUC(0-t) [2, 12] was 1.11 ± 0.63 ng·h/mL and the AUC(0-inf) [2, 13] was 2.31 ± 0.51 ng·h/mL. It also gave a Cmax [2, 14] of 1.06 ± 0.24 ng/mL, an MRT inf [2, 15] of 1.83 ± 0.56 h and a Tmax [2, 16] of 0.46 ± 0.1 h. The half-life [2, 17] was 1.18 ± 0.39 h.
Work on `COc1cc(O[C@@H]2O[C@H](CO)[C@@H](O)[C@H](O)[C@H]2O)c2c(O)c(C(C)=O)c(C)cc2c1` [TG, torachrysone-8-O-glucoside] yielded an AUC(0-t) [2, 12] of 21.2 ± 7.38 ng·h/mL, an AUC(0-inf) [2, 13] of 21.7 ± 7.48 ng·h/mL and a Cmax [2, 14] of 18.7 ± 4.06 ng/mL. It also gave an MRT inf [2, 15] of 2.1 ± 0.24 h, a Tmax [2, 16] of 0.11 ± 0.07 h and a half-life [2, 17] of 2 ± 0.63 h.
Compound `OC[C@H]1O[C@@H](Oc2c(O)cc(O)cc2/C=C/c2ccc(O)cc2)[C@H](O)[C@@H](O)[C@@H]1O` [TSG, 2,3,5,4′-tetrahydroxystilbene-2-O-β-D-glucoside] has an AUC(0-t) [2, 12] of 1870 ± 554 ng·h/mL, an AUC(0-inf) [2, 13] of 1870 ± 581 ng·h/mL and a Cmax [2, 14] of 1740 ± 401 ng/mL. For the same compound, the MRT inf [2, 15] was 3.66 ± 0.97 h, the Tmax [2, 16] was 0.33 ± 0.13 h and the half-life [2, 17] was 5.98 ± 2.62 h. For the same compound, the “AUC0–t” value [2, 19] was 1811 ± 554 ng·h/mL.
